{"source": "ChEMBL document CHEMBL3734692", "about": "“Design and synthesis of 2-oxindole based multi-targeted inhibitors of PDK1/Akt signaling pathway for the treatment of glioblastoma multiforme” (Eur J Med Chem, 2015)", "key": {"[1]": {"biological_target": "T1, 3-phosphoinositide-dependent protein kinase 1 (Homo sapiens, UniProt O15530)", "T1 sequence (O15530 whole entry)": "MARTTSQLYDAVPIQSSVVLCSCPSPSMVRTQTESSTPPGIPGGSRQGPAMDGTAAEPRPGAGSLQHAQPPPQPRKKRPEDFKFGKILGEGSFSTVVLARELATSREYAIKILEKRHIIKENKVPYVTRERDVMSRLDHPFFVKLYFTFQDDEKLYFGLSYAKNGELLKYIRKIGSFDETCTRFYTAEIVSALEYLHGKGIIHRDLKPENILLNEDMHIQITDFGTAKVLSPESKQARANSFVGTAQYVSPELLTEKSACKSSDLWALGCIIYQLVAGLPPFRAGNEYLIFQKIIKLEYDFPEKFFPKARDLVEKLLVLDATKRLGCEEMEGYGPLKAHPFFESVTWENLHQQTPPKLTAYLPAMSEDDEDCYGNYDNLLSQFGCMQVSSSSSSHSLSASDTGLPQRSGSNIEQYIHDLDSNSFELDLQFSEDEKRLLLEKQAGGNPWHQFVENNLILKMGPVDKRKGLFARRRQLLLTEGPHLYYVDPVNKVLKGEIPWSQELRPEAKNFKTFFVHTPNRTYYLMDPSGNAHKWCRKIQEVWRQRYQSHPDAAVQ", "assay": "Inhibition of PDK1 (unknown origin) in presence of 25 uM ATP incubated for 1 hr by Z'Lyte assay"}, "[2]": {"biological_target": "Tyrosine-protein kinase ABL1 (Homo sapiens) (UniProt P00519)", "assay": "Inhibition of ABL1 (unknown origin) at 1 uM by selectscreen kinase profiling assay in presence of ATP"}, "[3]": {"biological_target": "Phosphatidylinositol 4-kinase beta (Homo sapiens) (UniProt Q9UBF8)", "sequence (Q9UBF8 2-816 limits assumed)": "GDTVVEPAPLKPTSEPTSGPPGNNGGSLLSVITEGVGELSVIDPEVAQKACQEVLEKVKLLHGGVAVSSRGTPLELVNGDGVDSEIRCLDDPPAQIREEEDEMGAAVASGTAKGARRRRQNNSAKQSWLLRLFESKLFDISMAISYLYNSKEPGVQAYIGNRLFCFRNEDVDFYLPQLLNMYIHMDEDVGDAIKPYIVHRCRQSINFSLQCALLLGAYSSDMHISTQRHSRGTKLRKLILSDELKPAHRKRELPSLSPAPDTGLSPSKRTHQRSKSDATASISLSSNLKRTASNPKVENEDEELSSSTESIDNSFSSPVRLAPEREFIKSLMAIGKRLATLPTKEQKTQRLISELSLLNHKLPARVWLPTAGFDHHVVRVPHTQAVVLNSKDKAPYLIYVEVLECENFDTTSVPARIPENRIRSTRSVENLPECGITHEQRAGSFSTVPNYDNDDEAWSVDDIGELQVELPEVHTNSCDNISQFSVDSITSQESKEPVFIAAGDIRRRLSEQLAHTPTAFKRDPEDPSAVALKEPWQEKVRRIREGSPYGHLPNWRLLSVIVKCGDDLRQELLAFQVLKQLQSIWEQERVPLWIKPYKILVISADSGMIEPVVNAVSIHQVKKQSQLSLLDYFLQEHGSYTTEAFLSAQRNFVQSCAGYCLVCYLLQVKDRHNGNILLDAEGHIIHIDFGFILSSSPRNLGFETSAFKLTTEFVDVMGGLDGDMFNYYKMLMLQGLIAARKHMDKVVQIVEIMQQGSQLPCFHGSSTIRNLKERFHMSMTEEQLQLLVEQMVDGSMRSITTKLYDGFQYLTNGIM", "assay": "Inhibition of PI4Kbeta (unknown origin) at 1 uM by selectscreen kinase profiling assay in presence of ATP"}, "[4]": {"assay": "Induction of apoptosis in human GSC derived from ANGM-CSS cells assessed as early apoptotic cells at 1 uM after 7 days by annexin V-FITC/7-AAD dual staining based cell analysis (reference value: 3.29%)", "assay_type": "functional"}, "[5]": {"biological_target": "Protein kinase C delta type (Homo sapiens) (UniProt Q05655)", "sequence (Q05655 whole entry, looked up)": "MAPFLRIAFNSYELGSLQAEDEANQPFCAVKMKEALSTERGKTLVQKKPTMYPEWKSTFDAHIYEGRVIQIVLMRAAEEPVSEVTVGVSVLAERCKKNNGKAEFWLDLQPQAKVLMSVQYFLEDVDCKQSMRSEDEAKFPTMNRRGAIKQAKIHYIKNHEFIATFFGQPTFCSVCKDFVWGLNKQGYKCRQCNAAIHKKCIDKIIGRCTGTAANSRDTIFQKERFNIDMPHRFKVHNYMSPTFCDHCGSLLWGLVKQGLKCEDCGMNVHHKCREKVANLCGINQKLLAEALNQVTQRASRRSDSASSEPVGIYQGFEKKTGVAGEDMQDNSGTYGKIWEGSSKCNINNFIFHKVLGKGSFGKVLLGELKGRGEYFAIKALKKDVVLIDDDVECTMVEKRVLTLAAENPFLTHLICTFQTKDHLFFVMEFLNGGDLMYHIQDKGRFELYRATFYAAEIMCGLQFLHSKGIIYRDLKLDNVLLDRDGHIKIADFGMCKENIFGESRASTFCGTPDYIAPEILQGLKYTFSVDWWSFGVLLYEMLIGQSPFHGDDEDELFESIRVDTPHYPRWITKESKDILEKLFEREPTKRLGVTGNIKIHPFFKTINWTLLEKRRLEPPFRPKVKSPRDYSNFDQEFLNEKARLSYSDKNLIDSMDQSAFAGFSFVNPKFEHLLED", "assay": "Inhibition of PKCdelta (unknown origin) at 1 uM by selectscreen kinase profiling assay in presence of ATP"}, "[6]": {"test_system": "ANGM-CSS", "assay": "Antiproliferative activity against human ANGM-CSS cells assessed as inhibition of cell growth after 72 to 144 hrs by WST1 assay", "assay_type": "functional, cell-based"}, "[7]": {"biological_target": "cAMP-dependent protein kinase catalytic subunit alpha (Homo sapiens) (UniProt P17612)", "assay": "Inhibition of PRKACA (unknown origin) at 1 uM by selectscreen kinase profiling assay in presence of ATP"}, "[8]": {"organism": "Homo sapiens", "assay": "Inhibition of PKCbeta I (unknown origin) at 1 uM by selectscreen kinase profiling assay in presence of ATP"}, "[9]": {"biological_target": "AMP-activated protein kinase, AMPK (Homo sapiens) (UniProt P54646+O43741+P54619+Q9UGJ0+Q9Y478+Q13131+Q9UGI9)", "assay": "Inhibition of AMPK A1/B1/G1 (unknown origin) at 1 uM by selectscreen kinase profiling assay in presence of ATP", "assay_type": "protein-complex assay"}, "[10]": {"biological_target": "Casein kinase II subunit alpha' (Homo sapiens) (UniProt P19784)", "assay": "Inhibition of CK2alpha2 (unknown origin) at 1 uM by selectscreen kinase profiling assay in presence of ATP"}, "[11]": {"biological_target": "Mitogen-activated protein kinase 1 (Homo sapiens) (UniProt P28482)", "sequence (P28482 whole entry)": "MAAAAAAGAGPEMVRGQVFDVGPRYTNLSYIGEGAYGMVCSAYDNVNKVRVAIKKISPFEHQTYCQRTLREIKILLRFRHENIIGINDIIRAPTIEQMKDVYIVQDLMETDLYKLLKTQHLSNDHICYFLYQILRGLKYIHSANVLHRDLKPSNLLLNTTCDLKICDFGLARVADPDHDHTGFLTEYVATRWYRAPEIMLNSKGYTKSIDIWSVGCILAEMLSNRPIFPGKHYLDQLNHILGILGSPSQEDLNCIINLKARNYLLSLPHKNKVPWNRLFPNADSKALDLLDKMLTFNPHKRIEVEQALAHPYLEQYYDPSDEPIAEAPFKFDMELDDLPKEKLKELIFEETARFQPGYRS", "assay": "Inhibition of ERK2 (unknown origin) at 1 uM by selectscreen kinase profiling assay in presence of ATP"}, "[12]": {"test_system": "ANGM-CSS", "assay": "Reduction of neurosphere formation in human GSC derived from ANGM-CSS cells assessed as decrease in number and diameter of newly generated neurospheres at 1 uM after 9 days by microscopic analysis", "assay_type": "functional, cell-based"}, "[13]": {"assay": "Cell cycle arrest in human ANGM-CSS cells assessed as accumulation at G0/G1 phase at 1 uM after 7 days by based fluorescent reagent based cell analysis (reference value: 60.7%)", "assay_type": "functional"}, "[14]": {"biological_target": "Serine/threonine-protein kinase MARK1 (Homo sapiens) (UniProt Q9P0L2)", "sequence (Q9P0L2 whole entry, looked up)": "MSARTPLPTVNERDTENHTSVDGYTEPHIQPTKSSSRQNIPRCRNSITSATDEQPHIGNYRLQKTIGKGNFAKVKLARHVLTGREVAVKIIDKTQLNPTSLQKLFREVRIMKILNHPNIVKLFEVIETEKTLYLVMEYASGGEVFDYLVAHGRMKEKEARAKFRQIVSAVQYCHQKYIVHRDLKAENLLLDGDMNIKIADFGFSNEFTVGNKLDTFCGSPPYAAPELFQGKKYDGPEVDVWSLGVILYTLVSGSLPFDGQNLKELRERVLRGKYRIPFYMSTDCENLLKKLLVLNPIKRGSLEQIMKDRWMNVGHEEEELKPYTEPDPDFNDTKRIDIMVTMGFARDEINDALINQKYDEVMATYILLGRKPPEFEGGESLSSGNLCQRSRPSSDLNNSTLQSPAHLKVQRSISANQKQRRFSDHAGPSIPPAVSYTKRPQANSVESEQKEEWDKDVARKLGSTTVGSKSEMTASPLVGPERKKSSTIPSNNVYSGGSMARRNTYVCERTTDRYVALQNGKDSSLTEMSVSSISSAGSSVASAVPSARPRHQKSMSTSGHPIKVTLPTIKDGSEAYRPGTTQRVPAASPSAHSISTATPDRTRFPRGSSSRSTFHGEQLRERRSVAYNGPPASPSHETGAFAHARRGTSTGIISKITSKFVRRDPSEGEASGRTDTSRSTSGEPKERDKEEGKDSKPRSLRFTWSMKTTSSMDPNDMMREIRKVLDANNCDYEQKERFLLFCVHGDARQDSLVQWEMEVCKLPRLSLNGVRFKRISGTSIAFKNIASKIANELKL", "assay": "Inhibition of MARK1 (unknown origin) at 1 uM by selectscreen kinase profiling assay in presence of ATP"}, "[15]": {"biological_target": "Dual specificity protein kinase CLK1 (Homo sapiens) (UniProt P49759)", "sequence (P49759 whole entry, looked up)": "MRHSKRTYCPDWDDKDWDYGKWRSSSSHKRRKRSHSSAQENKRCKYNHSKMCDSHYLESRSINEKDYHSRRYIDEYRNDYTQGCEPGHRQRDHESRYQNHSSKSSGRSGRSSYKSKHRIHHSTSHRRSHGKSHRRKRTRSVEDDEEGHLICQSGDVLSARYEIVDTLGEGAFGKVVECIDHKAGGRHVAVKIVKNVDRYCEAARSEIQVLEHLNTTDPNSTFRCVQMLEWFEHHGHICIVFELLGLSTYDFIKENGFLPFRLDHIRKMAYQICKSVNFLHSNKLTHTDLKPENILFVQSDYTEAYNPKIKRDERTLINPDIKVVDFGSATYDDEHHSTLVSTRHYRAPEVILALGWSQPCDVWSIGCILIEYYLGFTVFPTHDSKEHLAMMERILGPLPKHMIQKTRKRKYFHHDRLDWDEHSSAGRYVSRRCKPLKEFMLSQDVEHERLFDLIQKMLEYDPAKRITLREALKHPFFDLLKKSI", "assay": "Inhibition of CLK1 (unknown origin) at 1 uM by selectscreen kinase profiling assay in presence of ATP"}, "[16]": {"assay": "Antiproliferative activity against human U118MG cells assessed as inhibition of cell growth after 144 hrs by WST1 assay", "assay_type": "functional", "details": "U-118-MG"}, "[17]": {"biological_target": "Mitogen-activated protein kinase 9 (Homo sapiens) (UniProt P45984)", "sequence (P45984 whole entry, looked up)": "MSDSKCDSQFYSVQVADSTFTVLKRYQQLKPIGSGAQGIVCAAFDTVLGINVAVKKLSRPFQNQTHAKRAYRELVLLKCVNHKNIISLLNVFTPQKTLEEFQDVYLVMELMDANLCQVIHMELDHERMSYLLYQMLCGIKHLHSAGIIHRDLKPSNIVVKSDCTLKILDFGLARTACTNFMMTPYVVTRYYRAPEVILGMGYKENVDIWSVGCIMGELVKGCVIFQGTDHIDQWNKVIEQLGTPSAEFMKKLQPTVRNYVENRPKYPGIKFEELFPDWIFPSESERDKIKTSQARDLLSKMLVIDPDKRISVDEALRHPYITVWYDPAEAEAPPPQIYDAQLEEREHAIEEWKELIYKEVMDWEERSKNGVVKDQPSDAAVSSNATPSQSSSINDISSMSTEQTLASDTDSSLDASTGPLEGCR", "assay": "Inhibition of JNK2 (unknown origin) at 1 uM by selectscreen kinase profiling assay in presence of ATP"}, "[18]": {"biological_target": "Rho-associated protein kinase 1 (Homo sapiens) (UniProt Q13464)", "assay": "Inhibition of ROCK1 (unknown origin) at 1 uM by selectscreen kinase profiling assay in presence of ATP"}, "[19]": {"biological_target": "G protein-coupled receptor kinase 5 (Homo sapiens) (UniProt P34947)", "assay": "Inhibition of GRK5 (unknown origin) at 1 uM by selectscreen kinase profiling assay in presence of ATP"}, "[20]": {"biological_target": "Glycogen synthase kinase-3 beta (Homo sapiens, UniProt P49841)", "sequence (P49841 whole entry)": "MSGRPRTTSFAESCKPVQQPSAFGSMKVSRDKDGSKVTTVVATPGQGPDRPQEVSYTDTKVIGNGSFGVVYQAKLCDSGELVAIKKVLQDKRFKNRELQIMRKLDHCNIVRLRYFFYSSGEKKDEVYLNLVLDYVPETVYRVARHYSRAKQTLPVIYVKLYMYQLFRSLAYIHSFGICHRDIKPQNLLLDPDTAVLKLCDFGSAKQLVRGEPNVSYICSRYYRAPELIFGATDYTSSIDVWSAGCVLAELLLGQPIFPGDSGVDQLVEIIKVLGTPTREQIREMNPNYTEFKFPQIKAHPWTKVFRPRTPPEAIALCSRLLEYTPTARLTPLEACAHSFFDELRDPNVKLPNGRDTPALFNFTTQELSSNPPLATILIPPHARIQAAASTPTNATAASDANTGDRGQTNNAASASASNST", "assay": "Inhibition of GSK3beta (unknown origin) in presence of 10 uM ATP incubated for 1 hr by Z'Lyte assay"}, "[21]": {"test_system": "ASPC1", "assay": "Cytotoxicity against human AsPC1 cells assessed as cell viability 10 uM after 72 hrs by cell counting analysis relative to control", "assay_type": "functional"}, "[22]": {"test_system": "U-118-MG", "assay": "Antiproliferative activity against human U118MG cells assessed as inhibition of cell growth after 72 to 144 hrs by WST1 assay", "assay_type": "functional, cell-based"}, "[23]": {"biological_target": "Serine/threonine-protein kinase Chk2 (Homo sapiens) (UniProt O96017)", "sequence (O96017 whole entry)": "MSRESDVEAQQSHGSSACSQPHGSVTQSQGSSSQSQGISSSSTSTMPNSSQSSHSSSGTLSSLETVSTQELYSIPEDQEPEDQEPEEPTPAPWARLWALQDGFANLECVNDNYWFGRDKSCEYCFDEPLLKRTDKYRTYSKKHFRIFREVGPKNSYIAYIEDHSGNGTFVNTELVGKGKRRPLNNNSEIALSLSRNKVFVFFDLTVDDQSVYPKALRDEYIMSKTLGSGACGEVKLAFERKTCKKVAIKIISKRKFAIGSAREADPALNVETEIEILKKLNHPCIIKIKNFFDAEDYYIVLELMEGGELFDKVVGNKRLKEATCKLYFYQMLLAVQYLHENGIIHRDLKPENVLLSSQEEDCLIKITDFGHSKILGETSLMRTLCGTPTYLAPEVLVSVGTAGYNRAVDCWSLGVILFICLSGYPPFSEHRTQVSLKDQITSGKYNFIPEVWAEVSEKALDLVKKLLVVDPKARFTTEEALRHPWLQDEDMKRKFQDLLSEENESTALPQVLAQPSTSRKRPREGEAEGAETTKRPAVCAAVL", "assay": "Inhibition of CHEK2 (unknown origin) at 1 uM by selectscreen kinase profiling assay in presence of ATP"}, "[24]": {"assay": "Cell cycle arrest in human GSC derived from ANGM-CSS cells assessed as accumulation at G2/M phase at 1 uM after 7 days by based fluorescent reagent based cell analysis (reference value: 23.5%)", "assay_type": "functional"}, "[25]": {"biological_target": "Calcium/calmodulin-dependent protein kinase type II subunit alpha (Homo sapiens) (UniProt Q9UQM7)", "sequence (Q9UQM7 whole entry)": "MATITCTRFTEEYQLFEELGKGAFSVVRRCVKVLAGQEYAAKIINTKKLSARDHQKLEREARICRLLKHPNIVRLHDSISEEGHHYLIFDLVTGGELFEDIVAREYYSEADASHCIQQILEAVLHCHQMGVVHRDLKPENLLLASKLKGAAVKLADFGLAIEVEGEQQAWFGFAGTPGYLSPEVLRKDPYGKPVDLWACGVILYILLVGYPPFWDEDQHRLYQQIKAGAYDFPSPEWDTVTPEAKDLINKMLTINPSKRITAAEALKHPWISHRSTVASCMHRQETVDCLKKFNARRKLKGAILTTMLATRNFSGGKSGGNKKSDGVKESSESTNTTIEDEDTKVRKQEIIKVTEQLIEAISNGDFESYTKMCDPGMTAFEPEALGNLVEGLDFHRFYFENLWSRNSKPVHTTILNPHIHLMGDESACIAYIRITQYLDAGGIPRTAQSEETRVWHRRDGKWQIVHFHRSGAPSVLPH", "assay": "Inhibition of CAMK2alpha (unknown origin) at 1 uM by selectscreen kinase profiling assay in presence of ATP"}, "[26]": {"biological_target": "Ribosomal protein S6 kinase alpha-1 (Homo sapiens) (UniProt Q15418)", "assay": "Inhibition of RSK1 (unknown origin) at 1 uM by selectscreen kinase profiling assay in presence of ATP"}, "[27]": {"assay": "Induction of apoptosis in human GSC derived from ANGM-CSS cells assessed as live cells at 1 uM after 7 days by annexin V-FITC/7-AAD dual staining based cell analysis (reference value: 91.88%)", "assay_type": "functional"}, "[28]": {"test_system": "ANGM-CSS", "assay": "Effect on human GSC morphology derived from ANGM-CSS cells assessed as outgrowth of cellular processes at 1 uM after 7 days by microscopic analysis", "assay_type": "functional, cell-based"}, "[29]": {"biological_target": "Protein kinase C zeta type (Homo sapiens) (UniProt Q05513)", "assay": "Inhibition of PKCzeta (unknown origin) at 1 uM by selectscreen kinase profiling assay in presence of ATP"}}, "note": "The source made the active and inactive calls. No cut-off for these calls is given here."}
{"smiles": "COc1cc2c(cc1OC)CN(CC(=O)Nc1ccc3c(c1)/C(=C/c1cnc[nH]1)C(=O)N3)CC2", "values": [{"measurement": "IC50", "setting": "[1]", "result": 0.998, "unit": "µM"}, {"measurement": "inhibition", "setting": "[2]", "result": 55, "unit": "%"}, {"measurement": "inhibition", "setting": "[3]", "result": 5, "unit": "%"}, {"measurement": "Activity", "setting": "[4]", "result": 12.65, "unit": "%"}, {"measurement": "inhibition", "setting": "[5]", "result": -5, "unit": "%"}, {"measurement": "growth inhibition (GI)", "setting": "[6]", "result": "Dose-dependent effect"}, {"measurement": "inhibition", "setting": "[7]", "result": 3, "unit": "%"}, {"measurement": "inhibition", "setting": "[8]", "result": -6, "unit": "%"}, {"measurement": "inhibition", "setting": "[9]", "result": 42, "unit": "%"}, {"measurement": "inhibition", "setting": "[10]", "result": 11, "unit": "%"}, {"measurement": "inhibition", "setting": "[11]", "result": 26, "unit": "%"}, {"measurement": "Activity", "setting": "[12]", "result": "Active"}, {"measurement": "Activity", "setting": "[13]", "result": 72.6, "unit": "%"}, {"measurement": "inhibition", "setting": "[14]", "result": 27, "unit": "%"}, {"measurement": "inhibition", "setting": "[15]", "result": 8, "unit": "%"}, {"measurement": "GI50", "setting": "[16]", "result": 16.1, "unit": "µM"}, {"measurement": "inhibition", "setting": "[17]", "result": 5, "unit": "%"}, {"measurement": "inhibition", "setting": "[18]", "result": 8, "unit": "%"}, {"measurement": "inhibition", "setting": "[19]", "result": 10, "unit": "%"}, {"measurement": "IC50", "setting": "[20]", "result": 0.272, "unit": "µM"}, {"measurement": "Activity", "setting": "[21]", "result": 68.14, "unit": "%"}, {"measurement": "growth inhibition (GI)", "setting": "[22]", "result": "Dose-dependent effect"}, {"measurement": "inhibition", "setting": "[23]", "result": 24, "unit": "%"}, {"measurement": "Activity", "setting": "[24]", "result": 27, "unit": "%"}, {"measurement": "inhibition", "setting": "[25]", "result": 1, "unit": "%"}, {"measurement": "inhibition", "setting": "[26]", "result": 44, "unit": "%"}, {"measurement": "Activity", "setting": "[27]", "result": 81.32, "unit": "%"}, {"measurement": "Activity", "setting": "[28]", "result": "Active"}, {"measurement": "inhibition", "setting": "[29]", "result": 0, "unit": "%"}]}
